What follows are molecules tested against GCN2 (Homo sapiens, UniProt Q9P2K8) (assay: TR-FRET biochemical assay for inhibition of GCN2 (Example 106, for Example 1-4BB)). Conditions: Table 8.
GCN2, sequence (Q9P2K8 whole entry): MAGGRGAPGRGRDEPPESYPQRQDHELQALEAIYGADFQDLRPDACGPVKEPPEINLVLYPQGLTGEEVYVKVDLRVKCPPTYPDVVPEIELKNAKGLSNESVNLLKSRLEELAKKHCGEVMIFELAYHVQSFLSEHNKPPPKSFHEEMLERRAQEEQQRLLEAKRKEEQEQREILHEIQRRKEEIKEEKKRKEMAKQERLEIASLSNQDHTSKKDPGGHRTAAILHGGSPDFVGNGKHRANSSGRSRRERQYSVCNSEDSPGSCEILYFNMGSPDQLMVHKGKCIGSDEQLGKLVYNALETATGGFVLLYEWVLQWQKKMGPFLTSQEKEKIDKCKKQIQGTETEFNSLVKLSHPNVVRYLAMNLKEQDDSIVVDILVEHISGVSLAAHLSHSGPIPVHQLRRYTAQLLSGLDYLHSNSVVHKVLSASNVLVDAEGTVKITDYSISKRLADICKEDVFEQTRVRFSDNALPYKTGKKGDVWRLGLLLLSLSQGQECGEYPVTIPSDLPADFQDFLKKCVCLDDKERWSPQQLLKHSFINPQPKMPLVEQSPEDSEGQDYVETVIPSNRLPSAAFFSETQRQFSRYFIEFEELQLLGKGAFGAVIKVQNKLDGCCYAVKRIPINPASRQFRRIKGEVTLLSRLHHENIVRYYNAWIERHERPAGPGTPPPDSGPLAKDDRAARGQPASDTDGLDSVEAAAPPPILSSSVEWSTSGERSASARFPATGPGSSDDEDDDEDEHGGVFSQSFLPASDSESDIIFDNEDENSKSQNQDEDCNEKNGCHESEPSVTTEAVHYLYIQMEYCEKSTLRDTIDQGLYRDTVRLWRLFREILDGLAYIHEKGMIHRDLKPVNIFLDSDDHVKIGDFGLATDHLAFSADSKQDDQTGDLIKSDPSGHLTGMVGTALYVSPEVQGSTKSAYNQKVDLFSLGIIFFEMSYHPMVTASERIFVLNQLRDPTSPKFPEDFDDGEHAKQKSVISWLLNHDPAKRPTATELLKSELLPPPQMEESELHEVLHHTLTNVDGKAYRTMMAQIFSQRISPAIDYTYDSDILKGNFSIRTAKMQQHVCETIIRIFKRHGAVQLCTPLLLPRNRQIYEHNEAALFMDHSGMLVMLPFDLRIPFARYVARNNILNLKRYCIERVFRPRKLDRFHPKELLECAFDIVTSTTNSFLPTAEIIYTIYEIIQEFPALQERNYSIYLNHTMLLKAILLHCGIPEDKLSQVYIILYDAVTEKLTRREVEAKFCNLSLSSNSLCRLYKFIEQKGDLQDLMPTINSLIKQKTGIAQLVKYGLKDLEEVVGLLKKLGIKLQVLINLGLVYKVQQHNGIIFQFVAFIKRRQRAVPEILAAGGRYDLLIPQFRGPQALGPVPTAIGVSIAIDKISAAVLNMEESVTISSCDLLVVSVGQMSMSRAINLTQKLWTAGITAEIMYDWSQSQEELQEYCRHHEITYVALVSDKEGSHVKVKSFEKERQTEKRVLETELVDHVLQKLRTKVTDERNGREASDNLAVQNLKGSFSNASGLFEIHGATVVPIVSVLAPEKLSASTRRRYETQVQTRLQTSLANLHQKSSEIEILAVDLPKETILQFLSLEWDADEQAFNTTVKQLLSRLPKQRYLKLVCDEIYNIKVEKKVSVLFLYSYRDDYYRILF

Row | Compound | IC50 [nM]
1 | O=S(=O)(Nc1ccc(F)c(-c2ccc3c(-c4ncc[nH]4)n[nH]c3c2F)c1F)c1ccccc1 [Example 2BV, N-(2,4-difluoro-3-(7-fluoro-3-(1H-imidazol-2-yl)-1H-indazol-6-yl)phenyl)benzene-sulfonamide] | 500 to 2500
2 | O=S(=O)(Nc1ccc(F)c(-c2ccc3c(-c4ncc[nH]4)n[nH]c3c2F)c1F)c1ccccc1Cl [Example 2BP, 2-chloro-N-(2,4-difluoro-3-(7-fluoro-3-(1H-imidazol-2-yl)-1H-indazol-6-yl)phenyl)-benzenesulfonamide] | < 500

Other lines, results leading:

Row | IC50 [nM] | Compound
3 | 500 to 2500 | COc1ccccc1S(=O)(=O)Nc1ccc(F)c(-c2ccc3c(-c4ncc[nH]4)n[nH]c3c2F)c1F [Example 2BF, N-(2,4-difluoro-3-(7-fIuoro-3-(1H-imidazol-2-yl)-1H-indazol-6-yl)phenyl)-2-methoxybenzenesulfonamide]
4 | < 500 | COc1ncc(Cl)cc1S(=O)(=O)Nc1ccc(F)c(-c2ccc3c(C(=O)NCCCN(C)C)n[nH]c3c2F)c1F [Example 2CG, 6-(3-((5-chloro-2-methoxy-pyridine)-3-sulfonamido)-2,6-difluorophenyl)-N-(3-(di-methylamino)propyl)-7-fluoro-1H-indazole-3-carboxamide]
5 | 500 to 2500 | COc1nn(C)cc1S(=O)(=O)Nc1ccc(F)c(-c2ccc3c(-c4ncc[nH]4)n[nH]c3c2F)c1F [Example 2K, N-(2,4-difluoro-3-(7-fluoro-3-(1H-imidazol-2-yl)-1H-indazol-6-yl)phenyl)-3-methoxy-1-methyl-1H-pyrazole-4-sulfonamide]

Same assay, conditions: Table 9

Row | Compound | IC50 [nM]
6 | COc1ncc(F)cc1S(=O)(=O)Nc1cccc(-c2ccc3c(C(=O)NCCCO)n[nH]c3c2F)c1F [Example 26, 7-Fluoro-6-(2-fluoro-3-((5-fluoro-2-methoxypyridine)-3-sulfonamido)phenyl)-N-(3-hydroxypropyl)-1H-indazole-3-carboxamide] | < 500
7 | COc1ncc(F)cc1S(=O)(=O)Nc1ccc(F)c(-c2ccc3c(-c4nc(C#N)c[nH]4)n[nH]c3c2F)c1F [Example 19, N-(3-(3-(4-Cyano-1H-imidazol-2-yl)-7-fluoro-1H-indazol-6-yl)-2,4-difluorophenyl)-5-fluoro-2-methoxypyridine-3-sulfonamide] | < 500
8 | COc1ncncc1S(=O)(=O)Nc1ccc(F)c(-c2ccc3c(C(=O)NCCCO)n[nH]c3c2F)c1F [Example 3CL, 6-(2,6-difluoro-3-((4-methoxypyrimidine)-5-sulfonamido)phenyl)-7-fluoro-N-(3-hydroxypropyl)-1H-indazole-3-carboxamide] | > 10000
9 | COc1ncc(Cl)cc1S(=O)(=O)Nc1ccc(F)c(-c2ccc3c(C(=O)Nc4cnn(C)c4)n[nH]c3c2F)c1F [Example 3BQ, 6-(3-((5-chloro-2-methoxy-pyridine)-3-sulfonamido)-2,6-difluorophenyl)-7-fluoro-N-(1-methyl-1H-pyrazol-4-yl)-1H-indazole-3-carboxamide] | 500 to 2500
10 | NC(=O)c1n[nH]c2c(F)c(-c3c(F)ccc(NS(=O)(=O)c4cccn5ccnc45)c3F)ccc12 [Example 3AA, 6-(2,6-difluoro-3-(imidazo-[1,2-a]pyridine-8-sulfon-amido)phenyl)-7-fluoro-1H-indazole-3-carboxamide] | 2500 to 10000

Continued, values first:

Row | IC50 [nM] | Compound
11 | < 500 | COc1ncc(C#N)cc1S(=O)(=O)Nc1cc(F)cc(-c2ccc3c(-c4ncc[nH]4)n[nH]c3c2F)c1F [Example 3BV, 5-cyano-N-(2,5-difluoro-3-(7-fluoro-3-(1H-imidazol-2-yl)-1H-indazol-6-yl)phenyl)-2-methoxypyridine-3-sulfonamide]
12 | < 500 | Cc1ncc(F)cc1S(=O)(=O)Nc1ccc(F)c(-c2ccc3c(C(=O)Nc4cnoc4)n[nH]c3c2F)c1F [Example 3DQ, 6-(2,6-difluoro-3-((5-fluoro-2-methylpyridine)-3-sulfonamido)phenyl)-7-fluoro-N-(isoxazol-4-yl)-1H-indazole-3-carboxamide]
